Experimental data: patent US12173088B2, “Anti-microbial peptides” (priority 2018, dated 2024)
In brackets after ≈: the same amount, converted by molar mass. Peptide text beside a SMILES is read from it.

Key:
S. aureus M838-17 (MRSA) = assay: microbe, parasite or virus in culture; format: cell-based, Staphylococcus aureus; conditions: M838-17
Procedure, shortened: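 Peptides were serially diluted two-fold against bacteria grown in tryptic soy broth to log phase (OD600 ≈0.5), then seeded at OD600 0.001. Plates were held overnight at 37° C and read at 630 nm. USA300 was also tested at pH 6.8, 7.2 and 8.0, with 150 mM NaCl or 5-10% serum, plasma or peritoneal fluid.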

K. pneumoniae E406-17 = assay: microbe, parasite or virus in culture; format: cell-based, Klebsiella pneumoniae; conditions: for MIC K. pneumonia 406-17: E406-17
Protocol: (§1) The antibacterial activity of peptides was evaluated using a standard broth microdilution protocol with minor modifications as described (Mishra, et al. (2012) J. Am. Chem. Soc., 134:12426-12429). In brief, logarithmic phase bacterial cultures (i.e., optical density at 600 nm≈0.5) were diluted to OD600 0.001 and partitioned into a 96-well polystyrene microplate at 90 μL per well. After treatment with 10 μL of peptide solutions two fold diluted to various concentrations, microplates were incubated at 37° C. overnight and read on a ChroMate® 4300 Microplate Reader at 630 nm (GMI, Ramsey, MN). […] To study the influence of medium conditions on the antimicrobial activity of peptides against S. aureus USA300, up to 200 mM sodium chloride (NaCl), 2 mM of calcium chloride, 5-10% of human serum, mouse plasma, fluid, or supernatants of tissue homogenates were included into the assays.
(§2) The bacterial strains used include the Gram-positive bacteria methicillin-resistant Staphylococcus aureus USA300, Enterococcus faecium V286-17 (VRE), S. aureus M838-17 (MRSA) and Gram-negative bacteria E. coli E423-17, E416-7 (ampC), P. aeruginosa E411-17, PA01, K. pneumoniae E406-17, ATCC13883, and A. baumannii B26-16. Bacteria were cultivated in tryptic soy broth (TSB) from BD Bioscience.
(§3) The antibacterial activity of peptides was evaluated using a standard broth microdilution protocol with minor modifications (Mishra, et al. (2017) Acta Biomater., 49:316-328). In brief, logarithmic phase bacterial cultures (i.e., optical density at 600 nm≈0.5) were diluted to 0.001 OD and aliquoted 90 μL per well into a 96-well polystyrene microplate. Added 10 μL peptides per well with various concentrations, plates were incubated at 37° C., overnight. Post incubation the plates are read at 630 nm using a ChroMate® Microplate Reader (GMI). […] To study the influence of medium conditions on the antimicrobial activity of peptides against S. aureus USA300 at different pHs (6.8, 7.2, and 8.0), 150 mM sodium chloride (NaCl), 5-10% of human serum, mouse plasma, and peritoneal fluid were included into the assays.

P. aeruginosa E411-17 = assay: microbe, parasite or virus in culture; format: cell-based, Pseudomonas aeruginosa; conditions: for MIC P. aeruginosa 411-17: E411-17
From the text: (§4) The bacterial strains used include the Gram-positive strains Staphylococcus aureus USA300 LAC, S. epidermidis 1457, and Bacillus subtilis 168, as well as the Gram-negative isolates Escherichia coli K12 and Acinetobacter baumannii B2367-12. Additional, drug resistance strains include Gram-positive Enterococcus faecium V286-17 (VRE) and S. aureus M838-17 (MRSA) and Gram-negative E. coli E423-17, E. coli E416-17 (ampC), and P. aeruginosa E411-17. Bacteria were cultivated in tryptic soy broth (TSB) (BD Bioscience, MD).
as §1, §2, §3

Hemolytic assay = format: cell-based, human; conditions: human, human red blood cells, 2% (v/v)
Procedure, shortened: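 HL50 marks the peptide level lysing half of a 2% (v/v) suspension of washed human erythrocytes after 1 h at 37 °C. Released hemoglobin measured at 545 nm, scaled between PBS (0%) and Triton X-100 (2% or 1%; 100%). Selectivity index computed as HL50 over MIC.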

S. aureus USA300 = assay: microbe, parasite or virus in culture; format: cell-based, Staphylococcus aureus; conditions: Table 14; read-out: MIC S. aureus USA300 (MRSA)
Procedure, shortened: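 Broth microdilution: log-phase cultures in tryptic soy broth diluted to OD600 0.001, exposed to two-fold diluted peptides at 37° C overnight, growth read at 630 nm. Medium effects on S. aureus USA300 tested with up to 200 mM NaCl, 2 mM CaCl2, 5-10% human serum, mouse plasma, fluids or tissue homogenate supernatants.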

E. faecium V286-17 (VRE) = assay: microbe, parasite or virus in culture; format: cell-based, Enterococcus faecium; conditions: Table 14; read-out: MIC E. faecium V286-17 (VRE)
From the text: as §4, §1, §2, §3

E. coli E423-17 = assay: microbe, parasite or virus in culture; format: cell-based, Escherichia coli; conditions: Table 14; read-out: MIC E. coli E423-17
From the text: as §4, §1, §2, §3

A. baumannii B26-16 = assay: microbe, parasite or virus in culture; format: cell-based, Acinetobacter baumannii; conditions: Table 14; read-out: MIC A. baumannii B26-16
Protocol: as §2, §3

Row | Compound | MIC S. aureus M838-17 (S. aureus M838-17 (MRSA)) [µM] | MIC K. pneumonia 406-17 (K. pneumoniae E406-17) [µM] | MIC P. aeruginosa 411-17 (P. aeruginosa E411-17) [µM] | HC50 at 1 h (Hemolytic assay) [µM] | MIC (S. aureus USA300) [µM] | MIC (K. pneumoniae E406-17; Table 14, read-out: MIC K. pneumoniae E406-17) [µM] | MIC (E. faecium V286-17 (VRE)) [µM] | MIC (E. coli E423-17) [µM] | MIC (P. aeruginosa E411-17; Table 14, read-out: MIC P. aeruginosa E411-17) [µM] | MIC (A. baumannii B26-16) [µM]
1 | CC(C)C[C@H](NC(=O)[C@H](Cc1c[nH]c2ccccc12)NC(=O)[C@H](Cc1c[nH]c2ccccc12)NC(=O)[C@H](Cc1c[nH]c2ccccc12)NC(=O)[C@H](Cc1c[nH]c2ccccc12)NC(=O)[C@H](CCCNC(=N)N)NC(=O)[C@H](CCCNC(=N)N)NC(=O)[C@@H](N)CCCNC(=N)N)C(N)=O [WW306, RRRWWWWL] (H-RRRWWWWL-NH2; N-terminus and C-terminus assumed) | 3.1 (≈ 4.17 µg/mL) | 6.25 (≈ 8.4 µg/mL) | 6.25 (≈ 8.4 µg/mL) | 60 |  |  |  |  |  | 
2 | C[C@H](NC(=O)[C@H](Cc1c[nH]c2ccccc12)NC(=O)[C@H](Cc1c[nH]c2ccccc12)NC(=O)[C@H](Cc1c[nH]c2ccccc12)NC(=O)[C@H](Cc1c[nH]c2ccccc12)NC(=O)[C@H](CCCNC(=N)N)NC(=O)[C@H](CCCNC(=N)N)NC(=O)[C@@H](N)CCCNC(=N)N)C(N)=O [WW308, RRRWWWWA] (H-RRRWWWWA-NH2; N-terminus and C-terminus assumed) | 12.5 (≈ 16.3 µg/mL) | >50 | 25 (≈ 32.5 µg/mL) | > 200 |  |  |  |  |  | 
3 | CC(C)C[C@H](NC(=O)[C@H](Cc1c[nH]c2ccccc12)NC(=O)[C@H](Cc1c[nH]c2ccccc12)NC(=O)[C@H](Cc1c[nH]c2ccccc12)NC(=O)[C@H](CCCNC(=N)N)NC(=O)[C@H](CCCNC(=N)N)NC(=O)[C@H](CCCNC(=N)N)NC(=O)[C@@H](N)CCCNC(=N)N)C(N)=O [WW309, RRRRWWWL] (H-RRRRWWWL-NH2; N-terminus and C-terminus assumed) | 6.25 (≈ 8.21 µg/mL) | >50 | 12.5 (≈ 16.4 µg/mL) | > 200 |  |  |  |  |  | 
4 | Colistin [reference compound] |  |  |  |  | >8 | >8 | >8 | 1 | 2 | 1
